Experimental data published in patent publication US8946266B2, “Substituted triazole and imidazole derivatives as gamma secretase modulators” (Janssen Pharmaceuticals, Inc., priority 2009, dated 2015).

Columns and labels:
[1] = tested on: Aβ42; assay: γ-secretase-modulating activity, Method 2: Aβ42 Alphalisa in supernatant of SKNBE2 cells carrying APP 695-wild type (Table 3b); format: cell-based; settings: overnight
Procedure, shortened: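 Aβ42 in the supernatant was quantified by AlphaLISA sandwich (JRF/cAβ42/26 with JRF/AβN/25). Cells were wild-type APP695 SKNBE2, exposed to compound overnight at 37° C., 5% CO2. Data were normalised to untreated maximum and fitted with a four-parameter curve to give IC50.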

[2] = tested on: Aβtotal; assay: In vivo efficacy, Method 2: brain soluble Aβtotal lowering 4 h after a single oral dose, ELISA (Table 4b); design: species or system mouse; settings: dose 30 mg/kg oral dosing
Source text: (§1) To determine whether acute administration of an Aβ42 lowering agent would reduce Aβ42 levels in vivo, non-transgenic rodents, e.g. mice or rats were used. Animals treated with the Aβ42 lowering agent were examined and compared to those untreated or treated with vehicle and brain levels of soluble Aβ42 and total Aβ were quantitated by standard techniques, for example, using ELISA. Treatment periods varied from hours (h) to days and were adjusted based on the results of the Aβ42 lowering once a time course of onset of effect could be established.
(§2) A typical protocol for measuring Aβ42 lowering in vivo is shown but it is only one of many variations that could be used to optimize the levels of detectable Aβ. For example, Aβ42 lowering compounds were formulated in 20% of Captisol® (a sulfobutyl ether of β-cyclodextrin) in water or 20% hydroxypropyl β cyclodextrin. The Aβ42 lowering agents were administered as a single oral dose or by any acceptable route of administration to overnight fasted animals. After 4 h, the animals were sacrificed and Aβ42 levels were analysed.
(§3) Blood was collected by decapitation and exsanguinations in EDTA-treated collection tubes. Blood was centrifuged at 1900 g for 10 minutes (min) at 4° C. and the plasma recovered and flash frozen for later analysis. The brain was removed from the cranium and hindbrain. The cerebellum was removed and the left and right hemisphere were separated. The left hemisphere was stored at −18° C. for quantitative analysis of test compound levels. The right hemisphere was rinsed with phosphate-buffered saline (PBS) buffer and immediately frozen on dry ice and stored at −80° C. until homogenization for biochemical assays.
(§4) Mouse brains from non-transgenic animals were resuspended in 8 volumes of 0.4% DEA (diethylamine)/50 mM NaCl containing protease inhibitors (Roche-11873580001 or 04693159001) per gram of tissue, e.g. for 0.158 g brain, add 1.264 ml of 0.4% DEA. All samples were homogenized in the FastPrep-24 system (MP Biomedicals) using lysing matrix D (MPBio #6913-100) at 6 m/s for 20 seconds. Homogenates were centrifuged at 221.300×g for 50 min. The resulting high speed supernatants were then transferred to fresh eppendorf tubes. Nine parts of supernatant were neutralized with 1 part 0.5 M Tris-HCl pH 6.8 and used to quantify Aβtotal and Aβ42.
(§5) To quantify the amount of Aβtotal and Aβ42 in the soluble fraction of the brain homogenates, Enzyme-Linked-Immunosorbent-Assays were used. Briefly, the standards (a dilution of synthetic Aβ1-40 and Aβ1-42, Bachem) were prepared in 1.5 ml Eppendorf tube in Ultraculture, with final concentrations ranging from 10000 to 0.3 pg/ml. The samples and standards were co-incubated with HRPO-labelled N-terminal antibody for Aβ42 detection and with the biotinylated mid-domain antibody 4G8 for Aβtotal detection. 50 μl of conjugate/sample or conjugate/standards mixtures were then added to the antibody-coated plate (the capture antibodies selectively recognize the C-terminal end of Aβ42, antibody JRF/cAβ42/26, for Aβ42 detection and the N-terminus of Aβ, antibody JRF/rAβ/2, for Aβtotal detection). The plate was allowed to incubate overnight at 4° C. in order to allow formation of the antibody-amyloid complex. Following this incubation and subsequent wash steps the ELISA for Aβ42 quantification was finished by addition of Quanta Blu fluorogenic peroxidase substrate according to the manufacturer's instructions (Pierce Corp., Rockford, Ill.). A reading was performed after 10 to 15 min (excitation 320/emission 420).
For Aβtotal detection, a Streptavidine-Peroxidase-Conjugate was added, followed 60 min later by an additional wash step and addition of Quanta Blu fluorogenic peroxidase substrate according to the manufacturer's instructions (Pierce Corp., Rockford, Ill.). A reading was performed after 10 to 15 min (excitation 320 nm/emission 420 nm).
(§6) The results are shown in Table 4b (dose 30 mg/kg oral dosing): […]

[3] = tested on: Aβ42; assay: In vivo efficacy, Method 2: brain soluble Aβ42 lowering 4 h after a single oral dose, ELISA (Table 4b); design: species or system mouse; settings: dose 30 mg/kg oral dosing
Source text: as §1, §2, §3, §4, §5
In this model at least 20% Aβ42 lowering compared to untreated animals would be advantageous.
as §6

[4] = tested on: Aβtotal; assay: γ-secretase-modulating activity, Method 2: Aβtotal Alphalisa in supernatant of SKNBE2 cells carrying APP 695-wild type (Table 3b); format: cell-based; settings: overnight, read-out: IC50 Aβtot
Procedure, shortened: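 Secreted Aβtotal was quantified by AlphaLISA pairing an N-terminal antibody (JRF/AβN/25) with biotinylated mid-region 4G8. Wild-type APP 695 SKNBE2 cells received serially varied compound overnight at 37 °C; IC50 came from a 4-parameter nonlinear regression of percent of control against log dose.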

Row | SMILES | IC50 [1] | Aβtotal (% Ctrl) _Mean [2] | Aβ42 (% Ctrl) _Mean [3] | IC50 [4]
1 | COc1nc(-c2nc(Nc3cccc(C(F)(F)F)c3)n(C)n2)ccc1-n1cnc(C)c1 [Compound 153] | 8 nM | −6 % Ctrl | 14 % Ctrl | > 10000 nM
2 | COc1nc(-c2nc(Nc3ccc(F)cc3C(F)(F)F)n(C)n2)ccc1-n1cnc(C)c1 [Compound 158] | 40 nM | 3 % Ctrl | 44 % Ctrl | > 10000 nM
3 | COc1cc(-c2nc(Nc3cccc(C)c3F)n(C)n2)ccc1-n1cnc(C)c1 [Compound 161] | 78 nM | 8 % Ctrl | 45 % Ctrl | > 10000 nM
4 | COc1cc(-c2nc(Nc3cc(C(F)(F)F)ccc3F)n(C)n2)ccc1-n1cnc(C)c1 [Compound 162] | 11 nM | 2 % Ctrl | 35 % Ctrl | 3630 nM
5 | COc1nc(-c2nc(Nc3cccc(C(F)(F)F)c3F)n(C)n2)ccc1-n1cnc(C)c1 [Compound 167] | 38 nM | −1 % Ctrl | 52 % Ctrl | > 15000 nM
6 | COc1cc(-c2nc(Nc3cccc(Cl)c3C(F)(F)F)n(C)n2)ccc1-n1cnc(C)c1 [Compound 169] | 41 nM | 9 % Ctrl | 57 % Ctrl | > 10000 nM
7 | COc1cc(-c2nc(Nc3cc(C(F)(F)F)ccc3Cl)n(C)n2)ccc1-n1cnc(C)c1 [Compound 177] | 10 nM | 11 % Ctrl | 51 % Ctrl | > 10000 nM
8 | COc1cc(-c2nc(Nc3cc(N(C)C)ccc3F)n(C)n2)ccc1-n1cnc(C)c1 [Compound 180] | 22 nM | 10 % Ctrl | 51 % Ctrl | > 10000 nM
9 | COc1cc(-c2nc(Nc3cccc(OC(F)(F)F)c3)n(C)n2)ccc1-n1cnc(C)c1 [Compound 181] | 25 nM | 9 % Ctrl | 28 % Ctrl | 5750 nM
10 | COc1cc(-c2nc(Nc3ccccc3OC(F)(F)F)n(C)n2)ccc1-n1cnc(C)c1.Cl.Cl [Compound 182] | 35 nM | 14 % Ctrl | 55 % Ctrl | 8510 nM
11 | COc1nc(-c2nc(Nc3cc(OC(F)(F)F)ccc3F)n(C)n2)ccc1-n1cnc(C)c1 [Compound 184] | 13 nM | 15 % Ctrl | 69 % Ctrl | > 15000 nM
12 | COc1cc(-c2nc(Nc3cc(OC(F)(F)F)ccc3F)n(C)n2)ccc1-n1cnc(C)c1 [Compound 185] | 17 nM | 9 % Ctrl | 40 % Ctrl | > 10000 nM
13 | COc1cc(-c2nc(Nc3cc(C)ccc3C)n(C)n2)ccc1-n1cnc(C)c1 [Compound 198] | 13 nM | 6 % Ctrl | 55 % Ctrl | > 10000 nM
14 | COc1ccc(C)c(Nc2nc(-c3ccc(-n4cnc(C)c4)c(OC)c3)nn2C)c1 [Compound 199] | 16 nM | 5 % Ctrl | 39 % Ctrl | > 10000 nM
15 | COc1cc(-c2nc(Nc3cc(C(F)(F)F)cc(OC)c3F)n(C)n2)ccc1-n1cnc(C)c1 [Compound 203] | 10 nM | 6 % Ctrl | 54 % Ctrl | > 10000 nM
16 | COCc1ccccc1Nc1nc(-c2ccc(-n3cnc(C)c3)c(OC)c2)nn1C.Cl [Compound 204] | 110 nM | 2 % Ctrl | 41 % Ctrl | > 10000 nM
17 | COc1cc(-c2nc(Nc3c(F)ccc(C(F)(F)F)c3F)n(C)n2)ccc1-n1cnc(C)c1 [Compound 211] | 25 nM | −1 % Ctrl | 32 % Ctrl | > 10000 nM
18 | COc1cc(Nc2nc(-c3ccc(-n4cnc(C)c4)c(OC)c3)nn2C)cc(C(F)(F)F)c1 [Compound 213] | 5 nM | 7 % Ctrl | 9 % Ctrl | 8910 nM
19 | COc1cc(-c2nc(Nc3c(F)cccc3OC)n(C)n2)ccc1-n1cnc(C)c1 [Compound 214] | 170 nM | 0 % Ctrl | −15 % Ctrl | > 10000 nM
20 | COc1ccc(C(F)(F)F)cc1Nc1nc(-c2ccc(-n3cnc(C)c3)c(OC)c2)nn1C [Compound 217] | 26 nM | −4 % Ctrl | 35 % Ctrl | 6460 nM
21 | COc1cc(-c2nc(Nc3cc(C(C)(C)C)nn3C)n(C)n2)ccc1-n1cnc(C)c1 [Compound 244] | 83 nM | 5 % Ctrl | 7 % Ctrl | > 10000 nM
22 | COc1cc(-c2nc3n(n2)CCC[C@H]3c2ccccc2Cl)ccc1-n1cnc(C)c1 [Compound 255] | 32 nM | 11 % Ctrl | 21 % Ctrl | 9330 nM
23 | COc1cc(-c2nc3n(n2)CCC[C@@H]3c2ccccc2C(F)(F)F)ccc1-n1cnc(C)c1 [Compound 260] | 457 nM | −9 % Ctrl | −1 % Ctrl | > 15000 nM
24 | COc1cc(-c2nc3n(n2)CCC[C@H]3c2ccccc2C(F)(F)F)ccc1-n1cnc(C)c1 [Compound 261] | 24 nM | 6 % Ctrl | 46 % Ctrl | > 15000 nM
